Assays:
human D2L = biological target: T1, human D2L (Homo sapiens, UniProt P14416); experiment: In vitro inhibition of [3H]-ligand binding to human D2L receptor; conditions: [3H]N-methyl spiperone, CHO cell membranes, 37° C.; read-out: D2 (Ki μM)
T1 construct: expressed in transfected cells
Experimental: (§1) Cells stably expressing the human homologs of the receptors (dopamine D2L, serotonin 5HT2A and 5HT2C, α1A adrenergic; cloned and expressed at Hoechst Marion Roussel; Grandy et al., 1989; Monsma et al., 1993; Schwinn et al., 1995) were grown; cell membranes were prepared, and kept frozen until used (Kongsamut et al., 1996). […] All binding parameters were optimized at Hoechst Marion Roussel; ligand Kds were determined using both saturation analysis (Scatchard) as well as kinetic analysis (association and dissociation rates). Each batch of membrane was validated by checking the ligand Kd, and rank order of potency of selected standard compounds. Assays for the serotonin 5HT2A and dopamine D2L receptors were conducted at 37° C. in a Tris buffer containing salts (50 mM Tris Buffer, pH 7.7; 120 mM NaCl; 5 mM KCl; 2 mM CaCl2; 1 mM MgCl2), while the serotonin 5-HT2C and α1A adrenergic receptor assays used a different buffer without salts (50 mM Tris, 4 mM CaCl2 and 1% ascorbate, pH 7.4). […]
(§2) Membranes were rapidly thawed and diluted to an appropriate concentration (between 20-150 μg protein/assay point depending on receptor expression level) in Tris buffer and homogenized. […] Microscint scintillation cocktail (40 μl) were added and the filter plates were counted in a Packard Top Count scintillation counter.

human 5-HT2A = biological target: T2, human 5-HT2A (Homo sapiens, UniProt P28223); experiment: In vitro inhibition of [3H]-ligand binding to human 5-HT2A receptor
T2 construct: expressed in transfected cells
Experimental: Cells stably expressing the human homologs of the receptors (dopamine D2L, serotonin 5HT2A and 5HT2C, α1A adrenergic; cloned and expressed at Hoechst Marion Roussel; Grandy et al., 1989; Monsma et al., 1993; Schwinn et al., 1995) were grown; cell membranes were prepared, and kept frozen until used (Kongsamut et al., 1996). The relevance of these binding sites has been extensively discussed in the literature (see for example: Carlsson & Carlsson, 1990; Creese et al., 1976; Gorman & Vargas, 1995; Meltzer et al., 1989). All binding parameters were optimized at Hoechst Marion Roussel; ligand Kds were determined using both saturation analysis (Scatchard) as well as kinetic analysis (association and dissociation rates). Each batch of membrane was validated by checking the ligand Kd, and rank order of potency of selected standard compounds. […]
as §2, with “counter. Data were analyzed to determine Ki's for compounds of interest (Prusoff & Cheng, […]).Table: Receptor Binding Parameters.” for “counter.”

human 5-HT2c = biological target: T3, human 5-HT2c (Homo sapiens, UniProt P28335); experiment: In vitro inhibition of [3H]-ligand binding to human 5-HT2C receptor; conditions: [3H]mesulergine, CHO cell membranes
T3 construct: expressed in transfected cells
T3 sequence (P28335 33-458): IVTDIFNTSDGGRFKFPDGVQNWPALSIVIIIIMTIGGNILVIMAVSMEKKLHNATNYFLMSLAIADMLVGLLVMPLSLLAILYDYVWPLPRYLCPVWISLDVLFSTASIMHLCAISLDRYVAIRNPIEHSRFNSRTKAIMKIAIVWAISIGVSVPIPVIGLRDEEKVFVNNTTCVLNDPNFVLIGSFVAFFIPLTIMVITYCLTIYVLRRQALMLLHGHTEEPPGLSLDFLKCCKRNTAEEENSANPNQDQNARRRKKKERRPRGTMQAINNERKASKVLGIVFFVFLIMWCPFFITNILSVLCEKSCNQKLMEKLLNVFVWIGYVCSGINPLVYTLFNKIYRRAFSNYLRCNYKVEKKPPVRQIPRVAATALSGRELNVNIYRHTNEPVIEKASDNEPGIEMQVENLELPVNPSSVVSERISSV
Experimental: as §1, §2

human α1A = biological target: T4, human α1A (Homo sapiens, UniProt P35348); experiment: In vitro inhibition of [3H]-ligand binding to human α1A adrenergic receptor; conditions: [3H]prazosin, CHO cell membranes
T4 construct: expressed in transfected cells
T4 sequence (P35348 1-466): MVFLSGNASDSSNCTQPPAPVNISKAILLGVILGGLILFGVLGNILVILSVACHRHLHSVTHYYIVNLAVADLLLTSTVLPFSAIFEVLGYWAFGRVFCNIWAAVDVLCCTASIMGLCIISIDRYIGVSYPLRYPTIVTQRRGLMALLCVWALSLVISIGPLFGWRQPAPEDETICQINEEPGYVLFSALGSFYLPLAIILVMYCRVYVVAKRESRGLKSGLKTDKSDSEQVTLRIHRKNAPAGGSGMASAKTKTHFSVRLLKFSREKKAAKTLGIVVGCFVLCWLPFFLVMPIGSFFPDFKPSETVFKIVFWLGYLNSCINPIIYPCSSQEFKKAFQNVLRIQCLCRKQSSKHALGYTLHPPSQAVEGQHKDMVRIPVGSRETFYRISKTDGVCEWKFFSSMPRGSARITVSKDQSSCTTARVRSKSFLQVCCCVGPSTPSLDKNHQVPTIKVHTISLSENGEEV
Experimental: as §1, §2

[1] = In vitro BBMEC permeability (transport studies); type: in vitro ADME; conditions: bovine, mean±standard deviation
Experimental: The procedure was performed according to: Kenneth L. Audus et al., Brain Microvessel Endothelial Cell Culture System (Chapter 13) pp 239-258. In Models for Assessing Drug Absorption and Metabolism, Ronald T. Borchardt et al. eds., Plenum Press, New York 1996, incorporated herein by reference.

T2 sequence (P28223 whole entry): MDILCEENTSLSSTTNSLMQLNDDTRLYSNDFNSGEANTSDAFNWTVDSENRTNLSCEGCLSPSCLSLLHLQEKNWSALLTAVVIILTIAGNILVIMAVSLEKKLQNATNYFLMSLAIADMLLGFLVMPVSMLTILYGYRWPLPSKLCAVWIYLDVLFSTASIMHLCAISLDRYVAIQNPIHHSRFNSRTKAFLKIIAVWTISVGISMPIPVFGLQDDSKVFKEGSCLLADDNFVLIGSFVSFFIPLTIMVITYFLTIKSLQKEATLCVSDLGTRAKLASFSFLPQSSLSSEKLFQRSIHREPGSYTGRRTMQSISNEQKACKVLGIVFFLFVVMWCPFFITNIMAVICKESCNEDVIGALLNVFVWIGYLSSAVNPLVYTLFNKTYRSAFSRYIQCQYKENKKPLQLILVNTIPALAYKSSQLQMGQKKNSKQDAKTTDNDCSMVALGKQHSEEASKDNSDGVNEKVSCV
T1 sequence (P14416 whole entry): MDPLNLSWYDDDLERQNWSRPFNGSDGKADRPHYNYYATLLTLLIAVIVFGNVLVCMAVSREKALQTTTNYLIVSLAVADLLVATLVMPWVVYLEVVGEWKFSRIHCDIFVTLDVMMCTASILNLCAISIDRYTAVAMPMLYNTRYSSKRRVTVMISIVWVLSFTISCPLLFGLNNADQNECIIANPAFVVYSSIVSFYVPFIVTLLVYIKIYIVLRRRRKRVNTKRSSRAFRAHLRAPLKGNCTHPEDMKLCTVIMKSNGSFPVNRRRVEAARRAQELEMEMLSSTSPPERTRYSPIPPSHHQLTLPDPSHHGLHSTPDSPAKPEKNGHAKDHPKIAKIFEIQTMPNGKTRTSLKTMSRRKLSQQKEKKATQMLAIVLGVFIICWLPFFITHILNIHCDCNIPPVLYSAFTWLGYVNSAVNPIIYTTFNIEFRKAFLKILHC

SMILES: COc1c(OS(=O)(=O)O)cccc1C(O)C1CCN(CCc2ccc(F)cc2)CC1 (stereo not drawn) [Example 1H, Sulfuric acid mono-(+)-[3-(-{1-[2-(4-fluoro-phenyl)-ethyl]-piperidin-4-yl}-hydroxy-methyl)-2-methoxy-phenyl] ester]
- Ki (human D2L): > 1 µM
- Ki (human 5-HT2A; [3H]N-methyl spiperone, BHK cell membranes, 37° C.): 0.16 µM
- Ki (human 5-HT2c): > 1 µM
- Ki (human α1A): > 1 µM

SMILES: OC[C@@H](O)[C@@H](O)[C@H](O)[C@H](O)CO [Mannitol (standard), Mannitol]
- Papp at 5.4 μM [1]: 27.6 ± 2.3 ×10⁻⁶ cm/s

SMILES: CN1CN(c2ccccc2)C2(CCN(CCCC(=O)c3ccc(F)cc3)CC2)C1=O [[^3H]N-methyl spiperone, reference compound]
- Kd (human 5-HT2A; human 5-HT2A, BHK, saturation (Scatchard) and kinetic analysis): 0.92 nM

Reference: patent US6716986B2, “Sulfuric acid mono-[3-({1-[2-(4-fluoro-phenyl)-ethyl]-piperidin-4-YL}-hydroxy-methyl)-2-methoxy-phenyl]ester” (Aventis Pharmaceuticals Inc., priority 1999, dated 2004)
